We go through five molecules from ChEMBL document CHEMBL1141683, “Substituted aryl pyrimidines as potent and soluble TRPV1 antagonists” (Bioorg Med Chem Lett, 2008).

Data set [1] is described as follows: physchem. As to conditions: 0.01N HCl.
A short description of data set [2]: physchem. Particulars: simulated intestinal fluid.
Data set [3] is described as follows: physchem. As to conditions: phosphate buffered saline, pH 7.
Data set [4] can be described thus: in vivo. Particulars: Sprague-Dawley, rat, po, 5 mg/kg.
The species entered for data set [5] is Rattus norvegicus. As to conditions: in vivo, po, 5 mg/kg.
The species entered for data set [6] is Rattus norvegicus. Particulars: in vivo, po, 5 mg/kg. This is another data set of the same source.
Data set [7] is described as follows: in vivo. As to conditions: Sprague-Dawley, rat, iv, 1 mg/kg.

The term solubility denotes the dissolved amount per volume that the medium holds. Low values mean little dissolved substance, high ones much dissolved substance. Broadly, the half-life is the time in which the quantity being followed falls by half. In general, AUC refers to concentration integrated over time. The clearance is the rate of elimination divided by the concentration. Higher therefore signals a high capacity for elimination.

Values after ≈ are worked out from the molar mass of the structure shown. A value given as a limit tells only on which side of the number the result lay.

Consider `CC(=O)Nc1nc2c(Oc3cc(-c4ccc(C(F)(F)F)cc4NC(=O)CCN(C)C)ncn3)cccc2s1`, for which the solubility in “physchem [1]” was 81 µg/mL (≈ 149 µM); in “physchem [2]”, 30 µg/mL (≈ 55.1 µM); in “physchem [3]”, 3.9 µg/mL (≈ 7.16 µM).
On to `CC(=O)Nc1nc2c(Oc3cc(-c4ccc(C(F)(F)F)cc4)ncn3)cccc2s1` [AMG-517], for which the solubility in the data set “physchem [1]” and in “physchem [3]” was < 1 µg/mL throughout. The molecule further showed a half-life in “in vivo [4]” of 6.3 h. In addition, the Vdss in the data set listed under Rattus norvegicus [5] was found to be 1.6 L/kg. This molecule registered an AUC in the data set listed under Rattus norvegicus [6] of 5400 ng·h/mL.
For the molecule `CC(=O)Nc1nc2c(Oc3cc(-c4ccc(C(F)(F)F)cc4NC(=O)[C@@H]4CCC(C)N4)ncn3)cccc2s1` (stereo not given in full), the solubility in the data set “physchem [1]” was 120 µg/mL (≈ 216 µM); in the data set “physchem [2]”, 59 µg/mL (≈ 106 µM); in the data set “physchem [3]”, 7.4 µg/mL (≈ 13.3 µM). In “in vivo [7]”, this molecule showed a clearance of 10.3 mL/min/kg.
Turning to `CC(=O)Nc1nc2c(Oc3cc(-c4ccc(C(F)(F)F)cc4NC(=O)[C@@H]4CCCN4CC(C)C)ncn3)cccc2s1`, the results for the solubility in “physchem [1]”, in the data set “physchem [2]” and in “physchem [3]” were > 200 µg/mL, 39 µg/mL (≈ 65.1 µM) and 6 µg/mL (≈ 10 µM), respectively. In addition, the clearance in “in vivo [7]” is > 66.7 mL/min/kg.
On to `CC(=O)Nc1nc2c(Oc3cc(-c4ccc(C(F)(F)F)cc4NC(=O)[C@H]4CCCN4CC(C)C)ncn3)cccc2s1`, for which the solubility in “physchem [1]” is > 200 µg/mL; in the data set “physchem [2]” it was 39 µg/mL (≈ 65.1 µM); in the data set “physchem [3]”, 1 µg/mL (≈ 1.67 µM). The clearance in the data set “in vivo [7]” was > 66.7 mL/min/kg.
